Results taken from patent US12383539B2 (Cavion, Inc., priority 2018, dated 2025).
“And” between values parts separate entries of the source, which are not always exact repeats. Equal entries are not always repeated. Where two headings read alike, the source gives them in different places.

How the values were obtained:
[1] = type: in vivo; details: rat NOAEL 300 mg/kg, human 10 mg BID
[2] = type: in vivo; details: dog NOAEL 30 mg/kg, human 10 mg BID
[3] = Clinical PK crossover study of IR, MR1 and MR2 capsules, single 8 mg dose; type: in vivo, human
Description: Subjects will be screened for study eligibility within 28 days before administration of the first dose of study drug. Subjects who meet the study eligibility criteria will be admitted to the clinical research unit in the afternoon of the day before administration of the first dose of study drug (Period 1/Day −1).
Treatments A, B, and C will be separated by a minimum 7-day washout period. […] Administration of Treatment D may be separated from administration of Treatments A, B, and C by approximately 4 weeks to allow for analysis of the bioanalytical samples from the first 3 treatments.
A single dose, crossover clinical trial was conducted in 15 subjects ranging in age from 35-75 years.

[4] = following a single 8 mg dose of IR CX-8998
[5] = following a single 8 mg dose of MR1 CX-8998
[6] = following a single 8 mg dose of MR2 CX-8998

With `C=C(C)c1ccc(CC(=O)N[C@H](C)c2ccc(OCC(F)(F)F)cn2)cc1` [M01] the “total safety margin, AUC24hr” value ([1]; Day 90, female) was 13 fold, the “total safety margin, Css (animal Cmax / human estimated Css at steady state)” value ([1]; Day 90, female) was 21 fold and the “total safety margin, AUC24hr” value ([1]; Day 90, male) was 6.8 fold. For the same molecule, the “total safety margin, Css (animal Cmax / human estimated Css at steady state)” value ([1]; Day 90, male) was 13 fold, the “total safety margin, AUC24hr” value ([2]; Day 90, female) was 5.6 fold and the “total safety margin, Css (animal Cmax / human estimated Css at steady state)” value ([2]; Day 90, female) was 8 fold and 8.0 fold. The “total safety margin, AUC24hr” value ([2]; Day 90, male) was 6.5 fold, the “total safety margin, Css (animal Cmax / human estimated Css at steady state)” value ([2]; Day 90, male) was 10 fold and the “AUC72hr Ratio (metabolite to CX-8998)” value [3, 4] was 0.92. For the same molecule, the “Cmax Ratio (metabolite to CX-8998)” value [3, 4] was 0.14, the “AUC72hr Ratio (metabolite to CX-8998)” value [3, 5] was 0.95 and the “Cmax Ratio (metabolite to CX-8998)” value [3, 5] was 0.27. The “AUC72hr Ratio (metabolite to CX-8998)” value [3, 6] was 0.90 and the “Cmax Ratio (metabolite to CX-8998)” value [3, 6] was 0.35.
